pEC50: −log10 of the molar value. The source made the active and inactive calls.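 Rule for the calls: active = a fitted half-maximal concentration EC50 for the rise in nuclear signal no higher than ten times the top dose tested; inconclusive = flat fit with activity between 30% and 70%, or unusable fit; inactive = EC50 beyond ten times the top dose.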
Biological target: Hypoxia-inducible factor 1-alpha (Homo sapiens) (UniProt Q16665)
Test: HIF pathway activation, GFP-HIF1alpha translocation – imaging, fluorescence, U2OS GFP-HIF1alpha, confirmation (AID 434951)
Conditions: U2OS GFP-HIF1alpha nuclear intensity, high-content imaging

Chain of Hypoxia-inducible factor 1-alpha (Homo sapiens) (Q16665 whole entry, looked up): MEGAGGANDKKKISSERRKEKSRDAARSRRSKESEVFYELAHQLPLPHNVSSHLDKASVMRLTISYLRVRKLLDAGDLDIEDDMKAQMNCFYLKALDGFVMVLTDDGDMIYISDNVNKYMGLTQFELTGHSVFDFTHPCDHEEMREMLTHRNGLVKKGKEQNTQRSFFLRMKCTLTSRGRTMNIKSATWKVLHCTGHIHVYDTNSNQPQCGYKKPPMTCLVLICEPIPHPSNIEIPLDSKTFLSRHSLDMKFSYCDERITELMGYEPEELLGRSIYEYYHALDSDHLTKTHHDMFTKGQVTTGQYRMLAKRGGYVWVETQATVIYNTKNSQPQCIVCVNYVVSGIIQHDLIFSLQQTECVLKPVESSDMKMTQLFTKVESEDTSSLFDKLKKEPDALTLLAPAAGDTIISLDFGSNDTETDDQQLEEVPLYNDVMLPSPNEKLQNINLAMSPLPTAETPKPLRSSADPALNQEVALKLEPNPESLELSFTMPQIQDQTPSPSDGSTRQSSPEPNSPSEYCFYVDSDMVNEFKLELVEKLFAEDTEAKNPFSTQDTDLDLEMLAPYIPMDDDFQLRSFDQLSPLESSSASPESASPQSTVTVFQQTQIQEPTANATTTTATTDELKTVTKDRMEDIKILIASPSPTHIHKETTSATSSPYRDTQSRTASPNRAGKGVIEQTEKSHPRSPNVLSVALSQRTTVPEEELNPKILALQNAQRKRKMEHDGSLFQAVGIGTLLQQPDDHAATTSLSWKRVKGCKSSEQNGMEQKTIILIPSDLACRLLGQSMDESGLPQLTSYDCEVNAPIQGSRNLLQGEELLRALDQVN

Structure (SMILES)	pEC50	EC50
CCOC(=O)C(=CNc1ccc(NC2=NCC(C)S2)cc1)C(=O)OCC (stereo not given)	5.08	
O=C(N/N=C/c1ccccn1)c1ccc(Br)cc1	4.91	
O=C(CCSc1nc2ccccc2s1)N/N=C/c1c(O)ccc2ccccc12	4.94	
Cc1ccc(S(=O)(=O)/N=C2/NC(=O)/C(=C/c3cc([N+](=O)[O-])ccc3O)S2)cc1		> 35 µM (inactive)
COc1ccc(/C=N/Nc2ncnc3sc4c(c23)CCCC4)cc1OC		> 35 µM (inactive)
Cc1ccc2nc(-c3ccccc3NC(=O)CCC(=O)O)c(=O)[nH]c2c1		> 35 µM (inactive)
O=C(CNC(=O)C(c1ccccc1)c1ccccc1)N/N=C/c1ccc(O)cc1O		> 35 µM (inactive)
c1ccc(Cc2nnc(-c3ccccc3)o2)cc1	4.75	
CCN1CCN(c2ncnc3ccc(Br)cc23)CC1		> 35 µM (inactive)
CCOC(=O)C1CCCN(C(=O)c2ccc3oc(CCc4ccccc4)nc3c2)C1 (stereo not given)		> 35 µM (inactive)
CCN(CC)c1ccc(/C=N/NC(=O)c2ccco2)c(O)c1	5.16	
CCOC(=O)c1c(S(=O)(=O)NCc2ccc(C)o2)c(C)n(C)c1C		> 35 µM (inactive)
Oc1[nH]c2ccc(Br)cc2c1N=NC(=S)N1CCOCC1	5.17	
CC(C)C(=O)N1CCN(c2ccc(NC(=O)COc3ccccc3[N+](=O)[O-])cc2)CC1		> 35 µM (inactive)
Oc1c(CN2CCc3ccccc3C2)cc(Cl)c2cccnc12	5.14	
CC(=O)NC(c1ccc(C)cc1)c1cc(Cl)c2cccnc2c1O (stereo not given)	4.78	
COc1ccc2c(c1)-c1nc(NC(=O)c3ccco3)sc1CC2		> 35 µM (inactive)
COc1ccc(NC(=O)c2cccs2)cn1		> 35 µM (inactive)
Cc1ccccc1-c1nc2ccccc2c(=O)n1/N=C/c1ccccc1[N+](=O)[O-]		> 35 µM (inactive)
Cc1sc(NC(=O)c2ccco2)c(CN2CCC(C)CC2)c1C		> 35 µM (inactive)
O=C(CSc1ccc(-c2ccccn2)nn1)Nc1nccs1	4.98	
COc1cc(C(=O)N2CCN(C(=O)Cc3ccccc3)CC2)cc(OC)c1OC		> 35 µM (inactive)

Structure (SMILES)	pEC50	EC50
O=C(NCCCN1CCOCC1)c1cc(-c2cccs2)on1	4.91	
Cc1cccc(NC(=O)COc2cccc3c2CCN(C)C3=O)c1C		> 35 µM (inactive)
O=C(CN1CCCc2ccccc21)N/N=C/c1c(O)ccc2ccccc12	4.44	
CCOc1ccccc1NC(=O)COc1ccc2c(c1)OCO2		> 35 µM (inactive)
CCN(CC)CCn1nc2c3c(cccc3c1=O)-c1ccccc1-2		> 35 µM (inactive)
COc1ccc(C(=O)NCCc2nc3cc([N+](=O)[O-])ccc3n2C)cc1		> 35 µM (inactive)
CCn1ncc(C2=NOC(C(=O)Nc3ccc4c(c3)OCO4)C2)c1C (stereo not given)		> 35 µM (inactive)
COC(=O)c1ccc(-n2cncn2)c([N+](=O)[O-])c1		> 35 µM (inactive)
COc1cccc(/C=N/Nc2nc3ccccc3[nH]2)c1O	4.88	
CCOC(=O)c1c(C)[nH]c(C)c1S(=O)(=O)N1c2ccccc2CC1C (stereo not given)		> 35 µM (inactive)
Oc1ccc(/C=N/Nc2ccc(C(F)(F)F)cn2)c(O)c1	4.53	
COc1cccc2sc(Nc3nc(-c4ccccn4)cs3)nc12	5.21	
CCN(CCCNC(=O)CCc1nc(-c2ccc(OC)cc2)no1)c1cccc(C)c1		> 35 µM (inactive)
O=C(O)c1ccc2cc(-c3ccccc3)[nH]c2c1		> 35 µM (inactive)
CNc1c2c(nn1C)CCCC2		> 35 µM (inactive)
COc1cccc(C(=O)SC2=NCCS2)c1		> 35 µM (inactive)
CC(C)N(c1ccccc1)c1ncnc(NCCC(=O)O)c1[N+](=O)[O-]		> 35 µM (inactive)
CCC(=O)NC(=S)Nc1ccc(NC(=O)c2cccc([N+](=O)[O-])c2C)cc1		> 35 µM (inactive)
CCSc1nc(NCCN(C)C)c2c3c(sc2n1)COC(C)(CC)C3 (stereo not given)		> 35 µM (inactive)
Nc1nc(SCC(=O)N2CCCC2)[nH]c(=O)c1-c1ccccc1		> 35 µM (inactive)
O=C(NCCCN1CCN(c2ccccc2F)CC1)Nc1ccccc1[N+](=O)[O-]		> 35 µM (inactive)
CN(CC(=O)Nc1ccc(F)c(F)c1F)C(=O)/C=C/c1ccc(Cl)cc1		> 35 µM (inactive)

Structure (SMILES)	pEC50	EC50
COc1ccccc1OCc1nnc(SCC(=O)NCc2ccco2)n1-c1ccccc1		> 35 µM (inactive)
COc1ccc(C)cc1NC(=O)c1ccc(N(C)S(C)(=O)=O)cc1		> 35 µM (inactive)
CCOc1ccc(NC(=O)CC2C(=O)Nc3ccccc3N2C(=O)c2ccccc2)cc1 (stereo not given)		> 35 µM (inactive)
Cc1onc(-c2ccccc2)c1C(=O)Nc1ccc(S(=O)(=O)N2CCCC2)cc1		> 35 µM (inactive)
Fc1cccc(/C=N/Nc2nccnc2Cl)c1		> 35 µM (inactive)
CCc1cc2c(=O)[nH]c(-c3ccccn3)nc2s1	5.32	
O=C(Nc1nc(NC(=O)c2ccco2)n(-c2ccccc2)n1)c1ccccc1	4.88	
CC(Sc1nnc(COc2ccc([N+](=O)[O-])cc2)n1C)C(=O)O (stereo not given)		> 35 µM (inactive)
C=CCOc1nc(-c2ccccc2Cl)nc2ccccc12		> 35 µM (inactive)
COc1ccc(NC(=O)CCC(=O)N(Cc2ccc(OC)c(OC)c2)c2nccs2)cc1		> 35 µM (inactive)
O=C(C1=C[C@@H](C2CC2)C[C@@H](OCCCCO)O1)N1CCN(Cc2ccc3c(c2)OCO3)CC1		> 35 µM (inactive)
Cc1ccnc(NS(=O)(=O)c2cc([N+](=O)[O-])ccc2C)c1		> 35 µM (inactive)
Nc1ccnn1-c1ccccc1		> 35 µM (inactive)
O=C(CCCCCN1C(=O)c2ccccc2C1=O)Nc1ccc2c(c1)OCCO2		> 35 µM (inactive)
CCOc1ccc(N2CC(C(=O)Nc3ccccc3C(=O)NC3CC3)CC2=O)cc1 (stereo not given)		> 35 µM (inactive)
COCCn1c(=NC(=O)c2ccc(S(=O)(=O)N3CCCc4ccccc43)cc2)sc2cc(S(C)(=O)=O)ccc21		> 35 µM (inactive)
N/C(=N\OC(=O)c1cccs1)c1ccc(Cl)cc1		> 35 µM (inactive)
FC(F)Oc1ccc(NC(=S)Nc2ccc3cn[nH]c3c2)cc1		> 35 µM (inactive)
c1ccc(CSc2ccc(-c3ccccn3)nn2)cc1	5.23	
O=C(NCCc1ccccc1)c1cc2sccc2n1Cc1ccccc1		> 35 µM (inactive)
COc1cc(C(=O)NCCc2nc3ccccc3n2C)cc(OC)c1OC		> 35 µM (inactive)
CCOC(=O)N1CCN(c2ccc(Cl)c(Cl)c2)CC1		> 35 µM (inactive)

Structure (SMILES)	pEC50	EC50
Cc1ccc2nc(N3CCN(C)CC3)[nH]c2c1		> 35 µM (inactive)
CCCCn1c(=O)[nH]c(=O)c2c(C(=O)OCC)cc(-c3cccs3)nc21		> 35 µM (inactive)
COc1ccccc1C(=O)Oc1ccccc1C(=O)Nc1ccccc1		> 35 µM (inactive)
CN1CCN(Cc2nc3ccccc3c(=O)n2Cc2nc(-c3ccccc3F)cs2)CC1	5.06	
CC1CCN(Cc2nnnn2CCCC(=O)NCCc2cnn(C)c2)CC1		> 35 µM (inactive)
Cc1ccc(C(=O)Nc2c3c(nn2C(C)(C)C)CS(=O)(=O)C3)cc1C		> 35 µM (inactive)
COC(=O)Nc1nnc(Cc2ccc(OC)cc2)s1		> 35 µM (inactive)
O=C(CCN1C(=O)S/C(=C\c2ccc(F)cc2)C1=O)Nc1ccc(C(=O)O)c(O)c1		> 35 µM (inactive)
COc1ccccc1NC(=O)CN(C)S(=O)(=O)c1cccc2cccnc12		> 35 µM (inactive)
NC(=O)c1sc2nccc(Nc3ccccc3)c2c1N		> 35 µM (inactive)
COc1cccc(/C=N/Nc2ccc([N+](=O)[O-])cn2)c1O	5.31	
COc1ccc(OC)c2[nH]c(C(=O)N/N=C/c3ccccc3O)cc12	5.18	
CCCCC(=O)NC(c1cccs1)c1cc(Cl)c2cccnc2c1O (stereo not given)		> 35 µM (inactive)
C(=N\Nc1nc2ccccc2[nH]1)/c1cccc2cccnc12	4.92	
Cc1ccc(Nc2c3c(nc4ccccc24)CCC3)cc1		> 35 µM (inactive)
CC(C)Sc1nc(N)c2c3c(sc2n1)CN(C)CC3		> 35 µM (inactive)
CCN(CC)c1ccc(/C=N/NC(=O)c2c(Cl)cnn2C)c(O)c1	5.69	
C=C(C)CNC(=O)c1ccc2nc(Cc3ccc(OC)cc3)oc2c1		> 35 µM (inactive)
COc1ccc(C(=O)C2CCCN(C(=O)C3CCOCC3)C2)cc1OC (stereo not given)		> 35 µM (inactive)

From PubChem BioAssay AID434951 (Broad Institute, 2010)
